Columns and labels:
[1] = biological target: T1, purified human TDO enzyme (Homo sapiens, UniProt P48775); test: TDO inhibition assay by the spectrometric method; format: biochemical; settings: spectrophotometric
T1 construct: 6xHis (N); made in house; host or cells: Escherichia coli BL21 (DE3) (pET 28a vector)
Method: Both IDO1 and TDO inhibition assays were performed according to the reported procedures[26]–[30],[50],[51]. The solubility of the compounds in water was either moderate or poor. […] In the assay system, the minimum and maximum amount of DMSO was 0.02% and 2%, respectively. The standard reaction mixture (500 μL) containing KPB (100 mM, pH 6.5 for IDO1 enzyme and 50 mM, pH 8.0 for TDO enzyme), sodium ascorbate (20 mM), methylene blue (10 µM), catalase (240 nM, from bovine liver), L-Trp (150 µM), purified enzyme (40 nM for IDO1 and 25 nM for TDO), DMSO (0.05%, v/v), Triton-X 100 (0.01%, v/v) and inhibitors was incubated at 37 °C for 1 hour. The concentration of the inhibitors was varied from 100 µM to 32 nM by serial dilution technique. Then, the reaction was quenched with 100 µL of 30% (w/v) trichloroacetic acid and was incubated for further 15 minutes at 65 °C. After that, 2% (w/v) pDMAB was used to quantify the amount of kynurenine formation. The absorbance of the reaction mixture was recorded by UV-Vis spectrophotometer at 480 nm. The Km = 59.76 µM and Kcat = 6.18 sec^−1.

[2] = biological target: T2, purified human IDO1 enzyme (Homo sapiens, UniProt P14902); test: IDO1 inhibition assay by the spectrometric method (pDMAB); format: biochemical; settings: purified human IDO1; spectrophotometric; mean of three independent assays; read-out: hIDO1 IC50
T2 construct: made in house; host or cells: Escherichia coli M15 (pQE30 vector with pREP4 plasmid)
T2 sequence (P14902 whole entry): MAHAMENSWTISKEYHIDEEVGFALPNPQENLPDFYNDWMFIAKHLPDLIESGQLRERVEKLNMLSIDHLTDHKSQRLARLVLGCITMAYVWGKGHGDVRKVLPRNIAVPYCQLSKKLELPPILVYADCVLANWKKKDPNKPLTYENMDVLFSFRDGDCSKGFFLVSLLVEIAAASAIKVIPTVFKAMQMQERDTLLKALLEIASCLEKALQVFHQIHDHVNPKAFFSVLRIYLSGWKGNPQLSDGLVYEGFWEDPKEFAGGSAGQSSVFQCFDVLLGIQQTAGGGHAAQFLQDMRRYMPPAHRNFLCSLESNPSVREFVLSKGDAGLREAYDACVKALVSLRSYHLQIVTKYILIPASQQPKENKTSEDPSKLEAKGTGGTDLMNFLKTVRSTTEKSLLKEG
Method: Both IDO1 and TDO inhibition assays were performed according to the reported procedures[26]–[30],[50],[51]. […] In the assay system, the minimum and maximum amount of DMSO was 0.02% and 2%, respectively. […] The concentration of the inhibitors was varied from 100 µM to 32 nM by serial dilution technique. Then, the reaction was quenched with 100 µL of 30% (w/v) trichloroacetic acid and was incubated for further 15 minutes at 65 °C. After that, 2% (w/v) pDMAB was used to quantify the amount of kynurenine formation. The absorbance of the reaction mixture was recorded by UV-Vis spectrophotometer at 480 nm.

T1 sequence (P48775 whole entry): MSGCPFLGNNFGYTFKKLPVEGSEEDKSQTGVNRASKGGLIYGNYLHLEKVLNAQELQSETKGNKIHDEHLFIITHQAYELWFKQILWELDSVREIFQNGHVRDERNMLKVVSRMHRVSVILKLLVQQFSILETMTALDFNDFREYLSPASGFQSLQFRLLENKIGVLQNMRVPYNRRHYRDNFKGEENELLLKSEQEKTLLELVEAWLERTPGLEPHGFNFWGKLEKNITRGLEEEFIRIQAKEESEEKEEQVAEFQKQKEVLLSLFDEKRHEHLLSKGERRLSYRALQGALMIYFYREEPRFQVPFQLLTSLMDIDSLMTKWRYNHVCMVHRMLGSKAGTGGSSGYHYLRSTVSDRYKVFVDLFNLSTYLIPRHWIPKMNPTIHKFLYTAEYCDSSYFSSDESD

| IC50 [2] [µM] | Structure (SMILES) | other results |
| --- | --- | --- |
| 0.392 ± 0.084 | CCOC(=O)c1n[nH]nc1-c1ccc(Cl)cc1 [Compound 2g] | % of Enzyme inhibition (TDO) ([1]; 32 nM): 16%; % of Enzyme inhibition (TDO) ([1]; 160 nM): 18%; % of Enzyme inhibition (TDO) ([1]; 800 nM): 23%; % of Enzyme inhibition (TDO) ([1]; 4 µM): 28%; % of Enzyme inhibition (TDO) ([1]; 20 µM): 36%; % of Enzyme inhibition (TDO) ([1]; 100 µM): 46% |
| 5.156 ± 0.011 | NC(=O)c1n[nH]nc1-c1ccc(Br)cc1 [Compound 3h] | – |
| 0.88 ± 0.018 | O=C(N/C(Cc1ccccc1)=N\O)c1n[nH]nc1-c1ccc(F)c(F)c1 [Compound 4g] | – |
| 1.993 ± 0.005 | NC(=O)c1n[nH]nc1-c1ccc(F)c(Br)c1 [3 l] | – |
| 6.91 ± 0.099 | Fc1ccc(-c2n[nH]nc2-c2ccc(F)c(Cl)c2)cc1Cl [Compound 1k] | – |
| 1.69 ± 0.102 | CCOC(=O)c1n[nH]nc1-c1ccc(F)c(Cl)c1 [Compound 2k] | – |
| 3.21 ± 0.1 | Clc1ccc(-c2n[nH]nc2-c2ccc(Cl)cc2)cc1 [Compound 1g] | – |
| 1.83 ± 0.126 | NC(=O)c1n[nH]nc1-c1ccc(F)c(Cl)c1 [Compound 3k] | – |
| 7.72 ± 0.761 | Fc1ccc(-c2n[nH]nc2-c2ccc(F)c(F)c2)cc1F [Compound 1i] | – |
| 4.99 ± 0.057 | Fc1cccc(-c2n[nH]nc2-c2cccc(F)c2)c1 [Compound 1c] | – |
| 8.09 ± 0.21 | CCOC(=O)c1n[nH]nc1-c1ccc(F)cc1 [Compound 2f] | – |
| 12.9 ± 0.191 | Clc1ccc(-c2n[nH]nc2-c2ccc(Cl)c(Cl)c2)cc1Cl [Compound 1j] | – |
| 1.7 ± 0.061 | CCOC(=O)c1n[nH]nc1-c1ccc(C)cc1 [Compound 2b] | – |
| 2.74 ± 0.195 | CC(C)(C)OC(=O)NCCNC(=O)c1n[nH]nc1-c1ccc(F)c(F)c1 [Compound 4f] | – |
| 54.9 ± 0.757 | Cc1ccc(-c2n[nH]nc2-c2ccc(C)cc2)cc1 [Compound 1b] | – |
| 2.69 ± 0.055 | NC(=O)c1n[nH]nc1-c1cccc(Cl)c1 [Compound 3d] | – |
| 0.624 ± 0.023 | NC(=O)c1n[nH]nc1-c1ccc(Cl)cc1 [Compound 3g] | % of Enzyme inhibition (TDO) ([1]; 32 nM): 5%; % of Enzyme inhibition (TDO) ([1]; 160 nM): 8%; % of Enzyme inhibition (TDO) ([1]; 800 nM): 15%; % of Enzyme inhibition (TDO) ([1]; 4 µM): 27%; % of Enzyme inhibition (TDO) ([1]; 20 µM): 35%; % of Enzyme inhibition (TDO) ([1]; 100 µM): 39% |
| 3.04 ± 0.091 | CCOC(=O)c1n[nH]nc1-c1ccc(F)c(Br)c1 [2 l] | – |
| 40.7 ± 2.7 | Brc1ccc(-c2n[nH]nc2-c2ccc(Br)cc2)cc1 [Compound 1h] | – |

Source: PMC6895048, “4,5-Disubstituted 1,2,3-triazoles: Effective Inhibition of Indoleamine 2,3-Dioxygenase 1 Enzyme Regulates T cell Activity and Mitigates Tumor Growth” (Scientific Reports, 2019)
